Measured values reported in patent publication US11427547B2, “Edaravone prodrug compound and pharmaceutical use thereof in treatment or alleviation of neurodegenerative or motor neuron disease” (J2H BIOTECH INC., priority 2018, dated 2022).
Values after ≈ are worked out from the molar mass of the structure shown. Structures can show the parent of a compound that is named as a salt.

Columns and labels:
[1] = Pharmacokinetic evaluation: edaravone in plasma after single oral administration to rats; format: in vivo, SD (Sprague-Dawley) rats; conditions: SD rats
Description: The pharmacokinetic test of the compounds of Examples and Reference Example was carried out as follows. That is, after a single oral administration of the test compound to SD (Sprague-Dawley) rats, the efficacy of the compound of the present invention was verified by tracking the kinetics of the edaravone released into the blood by metabolic processes and comparing it with a standard substance. Specifically, edaravone, a standard substance, was administered intravenously and orally, respectively, and the test compounds were administered orally. Then, the concentration of edaravone in blood was evaluated. The standard substance and the test compounds were each prepared in the same manner and then administered to rats at a dose of 0.1 mmol/kg, and blood was collected at a predetermined time and plasma was separated. Analysis of the drug was performed using HPLC (XBridge column Cis, Waters, mobile phase 0.1% formic acid:acetonitrile (30:70, %/%)) and MS/MS (ESI positive, MRM). Each commercial standard solution was mixed in a ratio of 9:1 with rat plasma to prepare and calibrate at concentrations of 5, 50, 100, 500, 1000 and 5000 ng/ml. In addition, the QC sample was prepared by mixing the rat plasma and the standard solution for QC at a ratio of 9:1, and at concentrations of 100, 750 and 2,500 ng/ml. In the pretreatment method, 100 μl of plasma sample was transferred to a tube for centrifugation, 10 μl of an internal standard solution and 300 μl of methanol were added, followed by mixing for about 30 seconds. The tube was centrifuged at 3,000×g (4° C.) for about 5 minutes, the supernatant was taken and transferred to an LC vial, and then injected into the instrument. In addition, the concentration of an active ingredient, that is, edaravone, in rat plasma was quantified by applying a previously validated analysis method. For pharmacokinetic parameters, WinNonlin 5.2 (Pharsight, USA) program was used, and AUC0-t, AUC0-∞, Cmax, Tmax, and t1/2 were calculated by noncompartment modeling (best fit). The pharmacokinetic parameter results were expressed as mean and standard deviation (SD), and statistically processed using the SPSS program (Statistical Package for the Social Sciences, 10.0K, USA).

[2] = cited from earlier work
[3] = in vivo; cited from earlier work
[4] = cited from earlier work; remark: listed apart in the source

| Compound | oral bioavailability (in words) [1] | solubility [2] [µg/mL] | oral absorption rate (Fabs) [3] [%] | permeability (Peff) [4] [×10⁻⁶ cm/s] |
| --- | --- | --- | --- | --- |
| Cc1cc(OC(=O)N2CCN(C(=O)[C@@H](N)C(C)C)CC2)n(-c2ccccc2)n1.Cl [Example 10, (S)-3-methyl-1-phenyl-1H-pyrazol-5-yl 4-(2-amino-3-methylbutanoyl)piperazine-1-carboxylate Hydrochloride] | excellent | – | – | – |
| Cc1cc(OC(=O)N2CCN(C(=O)[C@@H](N)CCCCN)CC2)n(-c2ccccc2)n1 [Example 19, (S)-3-methyl-1-phenyl-1H-pyrazol-5-yl 4-(2,6-diaminohexanoyl)piperazine-1-carboxylate Dihydrochloride] | excellent | – | – | – |
| CC1=NN(c2ccccc2)C(=O)C1 [edaravone] | – | 1850 (≈ 10.6 mM) | 5.23 | 0.318 |
| Cc1cc(OC(=O)N2CCN(C(=O)[C@@H](N)C(C)(C)C)CC2)n(-c2ccccc2)n1.Cl [Example 15, (S)-3-methyl-1-phenyl-1H-pyrazol-5-yl 4-(2-amino-3,3-dimethylbutanoyl)piperazine-1-carboxylate Hydrochloride] | excellent | – | – | – |
| Cc1cc(OC(=O)N2CCN(C(=O)[C@@H](N)C(C)C)[C@@H](C)C2)n(-c2ccccc2)n1.Cl [Example 14, (S)-3-methyl-1-phenyl-1H-pyrazol-5-yl 4-((S)-2-amino-3-methylbutanoyl)-3-methylpiperazin-1-carboxylate Hydrochloride] | excellent | – | – | – |
